Results: ChEMBL document CHEMBL1795325, “Studying synergism of methyl linked cyclohexyl thiophenes with triazole: synthesis and their cdk5/p25 inhibition activity” (Eur J Med Chem, 2011)

Molecular target: Cyclin-dependent kinase 5/CDK5 activator 1 (Homo sapiens, UniProt Q00535)
Assay type: protein-complex assay

Sequence of Cyclin-dependent kinase 5/CDK5 activator 1 (Q00535 whole entry): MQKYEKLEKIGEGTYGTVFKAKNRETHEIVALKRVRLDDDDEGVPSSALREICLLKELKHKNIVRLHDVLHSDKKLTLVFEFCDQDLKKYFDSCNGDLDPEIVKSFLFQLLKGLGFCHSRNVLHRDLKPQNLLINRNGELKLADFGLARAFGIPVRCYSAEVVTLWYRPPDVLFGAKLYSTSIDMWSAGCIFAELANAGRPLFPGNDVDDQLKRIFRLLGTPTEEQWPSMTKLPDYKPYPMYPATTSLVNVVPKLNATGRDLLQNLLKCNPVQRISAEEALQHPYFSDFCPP
Sequence of Cyclin-dependent kinase 5/CDK5 activator 1 (Q15078 whole entry, further chain): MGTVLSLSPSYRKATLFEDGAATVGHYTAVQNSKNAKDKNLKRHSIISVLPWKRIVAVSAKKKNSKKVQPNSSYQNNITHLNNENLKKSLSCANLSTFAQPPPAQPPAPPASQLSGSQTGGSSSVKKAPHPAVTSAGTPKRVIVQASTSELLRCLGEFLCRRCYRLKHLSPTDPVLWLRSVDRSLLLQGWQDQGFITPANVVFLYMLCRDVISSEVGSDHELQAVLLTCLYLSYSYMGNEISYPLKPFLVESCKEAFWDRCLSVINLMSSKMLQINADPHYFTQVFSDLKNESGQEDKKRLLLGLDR

Row | IC50 | SMILES
1 | 618 nM | CC(=O)Nn1c(S)nnc1Cc1c(NC(=O)c2ccccc2)sc2c1CCCC2
2 | 891 nM | O=C(Nc1sc2c(c1Cc1nnc(S)n1NC(=O)c1ccccc1)CCCC2)c1ccccc1
3 | 564 nM | CC(=O)Nn1c(Cc2c(NC(=O)c3ccccc3)sc3c2CCCC3)nnc1SCC#N
4 | 627 nM | O=C(Nc1sc2c(c1Cc1nnc(SCSc3nnc(Cc4c(NC(=O)c5ccccc5)sc5c4CCCC5)n3NC(=O)c3ccc(Cl)cc3)n1NC(=O)c1ccc(Cl)cc1)CCCC2)c1ccccc1
5 | 641 nM | CC(=O)NNC(=O)CSc1nnc(Cc2c(NC(C)=O)sc3c2CCCC3)n1NC(=O)c1ccc(Cl)cc1
6 | 5150 nM | CC(=O)Nc1sc2c(c1Cc1nnc(SCc3n[nH]c(=S)n3N)n1NC(C)=O)CCCC2
7 | 353 nM | COC(=O)CSc1nnc(Cc2c(NC(=O)c3ccccc3)sc3c2CCCC3)n1NC(=O)c1ccccc1
8 | 217 nM | O=C(CSc1nnc(Cc2c(NC(=O)c3ccccc3)sc3c2CCCC3)n1NC(=O)c1ccc(Cl)cc1)N/N=C/c1ccccc1
9 | 358 nM | CC(=O)Nn1c(Cc2c(NC(=O)c3ccccc3)sc3c2CCCC3)nnc1SCC(=O)NNC(=O)CCl
10 | 457 nM | O=C(O)CCNc1sc2c(c1Cc1nnc(S)n1NC(=O)c1ccc(Cl)cc1)CCCC2
11 | 639 nM | CC(=O)NNC(=O)CSc1nnc(Cc2c(NC(=O)c3ccccc3)sc3c2CCCC3)n1NC(C)=O
12 | 385 nM | CC(=O)Nc1sc2c(c1Cc1nnc(SCC(=O)N/N=C/c3ccccc3)n1NC(=O)c1ccccc1)CCCC2
13 | 564 nM | CC(=O)NNC(=O)CSc1nnc(Cc2c(NC(=O)c3ccccc3)sc3c2CCCC3)n1NC(=O)c1ccccc1
14 | 6440 nM | CC(=O)Nc1sc2c(c1Cc1nnc(SCc3n[nH]c(=S)n3N)n1NC(=O)c1ccccc1)CCCC2
15 | 4870 nM | N#CCSc1nnc(Cc2c(NCCC(=O)O)sc3c2CCCC3)n1NC(=O)c1ccccc1
16 | 733 nM | COC(=O)CSc1nnc(Cc2c(NCCC(=O)O)sc3c2CCCC3)n1NC(C)=O
17 | 180 nM | CC(=O)Nn1c(Cc2c(NC(=O)c3ccccc3)sc3c2CCCC3)nnc1SCC(=O)NN
18 | 362 nM | O=C(O)CCNc1sc2c(c1Cc1nnc(SCC(=O)NNC(=O)CCl)n1NC(=O)c1ccccc1)CCCC2
19 | 265 nM | CC(=O)Nn1c(Cc2c(NCCC(=O)O)sc3c2CCCC3)nnc1SCC(=O)NNC(=O)CCl
20 | 467 nM | CC(=O)Nn1c(Cc2c(NC(=O)c3ccccc3)sc3c2CCCC3)nnc1SCC(=O)N/N=C/c1ccccc1
21 | 839 nM | CC(=O)Nc1sc2c(c1Cc1nnc(SCSc3nnc(Cc4c(NC(C)=O)sc5c4CCCC5)n3NC(C)=O)n1NC(C)=O)CCCC2

Row | IC50 | SMILES
22 | 293 nM | COC(=O)CSc1nnc(Cc2c(NC(=O)c3ccccc3)sc3c2CCCC3)n1NC(=O)c1ccc(Cl)cc1
23 | 548 nM | CC(=O)NNC(=O)CSc1nnc(Cc2c(NC(C)=O)sc3c2CCCC3)n1NC(=O)c1ccccc1
24 | 352 nM | CC(=O)NNC(=O)CSc1nnc(Cc2c(NCCC(=O)O)sc3c2CCCC3)n1NC(=O)c1ccc(Cl)cc1
25 | 6140 nM | CC(=O)Nn1c(Cc2c(NC(=O)c3ccccc3)sc3c2CCCC3)nnc1SCc1nnc(S)n1N
26 | 577 nM | O=C(O)CCNc1sc2c(c1Cc1nnc(SCSc3nnc(Cc4c(NCCC(=O)O)sc5c4CCCC5)n3NC(=O)c3ccccc3)n1NC(=O)c1ccccc1)CCCC2
27 | 3280 nM | Nn1c(S)nnc1CSc1nnc(Cc2c(NC(=O)c3ccccc3)sc3c2CCCC3)n1NC(=O)c1ccc(Cl)cc1
28 | 434 nM | O=C(O)CCNc1sc2c(c1Cc1nnc(SCC(=O)NNC(=O)c3ccccc3)n1NC(=O)c1ccccc1)CCCC2
29 | 267 nM | O=C(O)CCNc1sc2c(c1Cc1nnc(SCC(=O)N/N=C/c3ccccc3)n1NC(=O)c1ccccc1)CCCC2
30 | 5850 nM | Nn1c(S)nnc1CSc1nnc(Cc2c(NCCC(=O)O)sc3c2CCCC3)n1NC(=O)c1ccc(Cl)cc1
31 | 327 nM | CC(=O)NNC(=O)CSc1nnc(Cc2c(NC(C)=O)sc3c2CCCC3)n1NC(C)=O
32 | 213 nM | CC(=O)Nc1sc2c(c1Cc1nnc(SCC(=O)N/N=C/c3ccccc3)n1NC(=O)c1ccc(Cl)cc1)CCCC2
33 | 641 nM | COC(=O)CSc1nnc(Cc2c(NCCC(=O)O)sc3c2CCCC3)n1NC(=O)c1ccccc1
34 | 183 nM | O=C(Nc1sc2c(c1Cc1nnc(S)n1NC(=O)c1ccc(Cl)cc1)CCCC2)c1ccccc1
35 | 411 nM | CC(=O)Nn1c(Cc2c(NC(=O)c3ccccc3)sc3c2CCCC3)nnc1SCC(=O)NNC(=O)c1ccccc1
36 | 458 nM | CC(=O)Nc1sc2c(c1Cc1nnc(SCC#N)n1NC(C)=O)CCCC2
37 | 572 nM | CC(=O)Nc1sc2c(c1Cc1n[nH]c(=S)n1NC(=O)c1ccccc1)CCCC2
38 | 413 nM | CC(=O)Nc1sc2c(c1Cc1nnc(SCC(=O)NNC(=O)c3ccccc3)n1NC(=O)c1ccccc1)CCCC2
39 | 366 nM | CC(=O)NNC(=O)CSc1nnc(Cc2c(NCCC(=O)O)sc3c2CCCC3)n1NC(C)=O
40 | 584 nM | CC(=O)Nc1sc2c(c1Cc1nnc(S)n1NC(C)=O)CCCC2
41 | 695 nM | O=C(Nc1sc2c(c1Cc1nnc(SCSc3nnc(Cc4c(NC(=O)c5ccccc5)sc5c4CCCC5)n3NC(=O)c3ccccc3)n1NC(=O)c1ccccc1)CCCC2)c1ccccc1
42 | 734 nM | CC(=O)Nn1c(Cc2c(NCCC(=O)O)sc3c2CCCC3)nnc1SCSc1nnc(Cc2c(NCCC(=O)O)sc3c2CCCC3)n1NC(C)=O

Row | IC50 | SMILES
43 | 415 nM | CC(=O)Nc1sc2c(c1Cc1nnc(SCC#N)n1NC(=O)c1ccc(Cl)cc1)CCCC2
44 | 164 nM | O=C(O)CCNc1sc2c(c1Cc1nnc(SCSc3nnc(Cc4c(NCCC(=O)O)sc5c4CCCC5)n3NC(=O)c3ccc(Cl)cc3)n1NC(=O)c1ccc(Cl)cc1)CCCC2
45 | 674 nM | O=C(O)CCNc1sc2c(c1Cc1n[nH]c(=S)n1NC(=O)c1ccccc1)CCCC2
46 | 467 nM | CC(=O)NNC(=O)CSc1nnc(Cc2c(NCCC(=O)O)sc3c2CCCC3)n1NC(=O)c1ccccc1
47 | 460 nM | CC(=O)Nc1sc2c(c1Cc1n[nH]c(=S)n1NC(=O)c1ccc(Cl)cc1)CCCC2
48 | 260 nM | CC(=O)Nc1sc2c(c1Cc1nnc(SCC(=O)NNC(=O)CCl)n1NC(=O)c1ccc(Cl)cc1)CCCC2
49 | 249 nM | CC(=O)Nc1sc2c(c1Cc1nnc(SCC(=O)NN)n1NC(C)=O)CCCC2
50 | 4590 nM | Nn1c(CSc2nnc(Cc3c(NC(=O)c4ccccc4)sc4c3CCCC4)n2NC(=O)c2ccccc2)n[nH]c1=S
51 | 422 nM | N#CCSc1nnc(Cc2c(NCCC(=O)O)sc3c2CCCC3)n1NC(=O)c1ccc(Cl)cc1
52 | 466 nM | O=C(CSc1nnc(Cc2c(NC(=O)c3ccccc3)sc3c2CCCC3)n1NC(=O)c1ccccc1)NNC(=O)c1ccccc1
53 | 436 nM | CC(=O)Nc1sc2c(c1Cc1nnc(SCC(=O)NNC(=O)c3ccccc3)n1NC(C)=O)CCCC2
54 | 486 nM | N#CCSc1nnc(Cc2c(NC(=O)c3ccccc3)sc3c2CCCC3)n1NC(=O)c1ccccc1
55 | 766 nM | CC(=O)Nn1c(Cc2c(NC(=O)c3ccccc3)sc3c2CCCC3)nnc1SCSc1nnc(Cc2c(NC(=O)c3ccccc3)sc3c2CCCC3)n1NC(C)=O
56 | 4990 nM | Nn1c(CSc2nnc(Cc3c(NCCC(=O)O)sc4c3CCCC4)n2NC(=O)c2ccccc2)n[nH]c1=S
57 | 318 nM | CC(=O)NNC(=O)CSc1nnc(Cc2c(NC(=O)c3ccccc3)sc3c2CCCC3)n1NC(=O)c1ccc(Cl)cc1
58 | 258 nM | O=C(O)CCNc1sc2c(c1Cc1nnc(SCC(=O)N/N=C/c3ccccc3)n1NC(=O)c1ccc(Cl)cc1)CCCC2
59 | 641 nM | CC(=O)Nn1c(Cc2c(NCCC(=O)O)sc3c2CCCC3)nnc1SCC#N
60 | 567 nM | COC(=O)CSc1nnc(Cc2c(NC(=O)c3ccccc3)sc3c2CCCC3)n1NC(C)=O
61 | 264 nM | NNC(=O)CSc1nnc(Cc2c(NC(=O)c3ccccc3)sc3c2CCCC3)n1NC(=O)c1ccccc1
62 | 201 nM | NNC(=O)CSc1nnc(Cc2c(NCCC(=O)O)sc3c2CCCC3)n1NC(=O)c1ccc(Cl)cc1
63 | 271 nM | O=C(O)CCNc1sc2c(c1Cc1nnc(SCC(=O)NNC(=O)c3ccccc3)n1NC(=O)c1ccc(Cl)cc1)CCCC2

Row | IC50 | SMILES
64 | 185 nM | O=C(O)CCNc1sc2c(c1Cc1nnc(SCC(=O)NNC(=O)CCl)n1NC(=O)c1ccc(Cl)cc1)CCCC2
65 | 476 nM | CC(=O)Nn1c(Cc2c(NCCC(=O)O)sc3c2CCCC3)nnc1SCC(=O)NNC(=O)c1ccccc1
66 | 551 nM | N#CCSc1nnc(Cc2c(NC(=O)c3ccccc3)sc3c2CCCC3)n1NC(=O)c1ccc(Cl)cc1
67 | 931 nM | CC(=O)Nn1c(Cc2c(NCCC(=O)O)sc3c2CCCC3)nnc1SCC(=O)NN
68 | 435 nM | O=C(CSc1nnc(Cc2c(NC(=O)c3ccccc3)sc3c2CCCC3)n1NC(=O)c1ccccc1)N/N=C/c1ccccc1
69 | 453 nM | CC(=O)Nc1sc2c(c1Cc1nnc(SCC(=O)N/N=C/c3ccccc3)n1NC(C)=O)CCCC2
70 | 236 nM | NNC(=O)CSc1nnc(Cc2c(NC(=O)c3ccccc3)sc3c2CCCC3)n1NC(=O)c1ccc(Cl)cc1
71 | 474 nM | CC(=O)Nc1sc2c(c1Cc1nnc(SCC(=O)NNC(=O)CCl)n1NC(C)=O)CCCC2
72 | 192 nM | CC(=O)Nc1sc2c(c1Cc1nnc(SCC(=O)NN)n1NC(=O)c1ccccc1)CCCC2
73 | 646 nM | CC(=O)Nc1sc2c(c1Cc1nnc(SCSc3nnc(Cc4c(NC(C)=O)sc5c4CCCC5)n3NC(=O)c3ccccc3)n1NC(=O)c1ccccc1)CCCC2
74 | 6380 nM | CC(=O)Nc1sc2c(c1Cc1nnc(SCc3nnc(S)n3N)n1NC(=O)c1ccc(Cl)cc1)CCCC2
75 | 340 nM | O=C(CCl)NNC(=O)CSc1nnc(Cc2c(NC(=O)c3ccccc3)sc3c2CCCC3)n1NC(=O)c1ccc(Cl)cc1
76 | 643 nM | CC(=O)Nc1sc2c(c1Cc1nnc(SCC(=O)NNC(=O)CCl)n1NC(=O)c1ccccc1)CCCC2
77 | 535 nM | CC(=O)Nn1c(Cc2c(NCCC(=O)O)sc3c2CCCC3)nnc1SCC(=O)N/N=C/c1ccccc1
78 | 455 nM | NNC(=O)CSc1nnc(Cc2c(NCCC(=O)O)sc3c2CCCC3)n1NC(=O)c1ccccc1
79 | 393 nM | CC(=O)Nc1sc2c(c1Cc1nnc(SCC#N)n1NC(=O)c1ccccc1)CCCC2
80 | 367 nM | CC(=O)Nc1sc2c(c1Cc1nnc(SCSc3nnc(Cc4c(NC(C)=O)sc5c4CCCC5)n3NC(=O)c3ccc(Cl)cc3)n1NC(=O)c1ccc(Cl)cc1)CCCC2
81 | 483 nM | O=C(CSc1nnc(Cc2c(NC(=O)c3ccccc3)sc3c2CCCC3)n1NC(=O)c1ccc(Cl)cc1)NNC(=O)c1ccccc1
82 | 525 nM | CC(=O)Nc1sc2c(c1Cc1nnc(SCC(=O)NNC(=O)c3ccccc3)n1NC(=O)c1ccc(Cl)cc1)CCCC2
83 | 6210 nM | CC(=O)Nn1c(Cc2c(NCCC(=O)O)sc3c2CCCC3)nnc1SCc1nnc(S)n1N
